In US12697330B2, “Therapeutic methods using vadadustat” (Akebia Therapeutics, Inc., priority 2021, dated 2026):

Tests used:
Format in all cases: in vivo, human
hemodialysis subjects = test: Main Study: vadadustat versus epoetin alfa in hemodialysis subjects (Hb, ESA/RBC rescue, EPO levels)
Text: The primary efficacy endpoint was to assess the mean change in Hb between baseline and the PEP (Weeks 10 to 12) in hemodialysis subjects.
The first key secondary efficacy endpoint was the proportion of subjects with Hb values within the target range (10.0 to 11.0 g/dL, inclusive) at the PEP (Weeks 10 to 12).
The second key secondary endpoint was the mean change in Hb from PEP (average Hb from Weeks 10 to 12) to the SEP (average Hb from Weeks 18 to 20) for subjects who transitioned to TIW vadadustat dosing. In the Main Study, the change in Hb from PEP to SEP for the 17 subjects who switched from QD to TIW was −0.4 g/dL.

healthy adults = test: Drug interaction study with co-administration of vadadustat in healthy adults; conditions: with probenecid, an inhibitor of UGT and OAT1/3 transporters
Text: Sulfasalazine. Other Breast Cancer Resistance Protein Substrates. and Probenecid. Exposures to sulfasalazine (moderately) and mesalamine (mildly) were increased with co-administration of vadadustat based on a study in healthy adults. In subjects taking vadadustat, sulfasalazine and other clinically relevant substrates of the breast cancer resistance protein (BCRP) transporter (e.g., sulfasalazine, methotrexate, mitoxantrone, imatinib, irinotecan, lapatinib, topotecan, tenofovir, glecaprevir, pibrentasvir, or sofosbuvir), caution should be taken during the study. Probenecid, an inhibitor of UDP-glucuronosyltransferase (UGT) and the organic anion transporter (OAT)1/3 transporters, increased vadadustat area under the curve and is prohibited during the study.

[1] = Phase 1b study: pharmacokinetics of vadadustat and its metabolites in plasma of hemodialysis subjects with anemia associated with CKD
Experimental: The primary objective of the study was to assess the pharmacokinetics (PK) of vadadustat 600, 750, and 900 mg daily, and IV ESA (darbepoetin alfa or epoetin alfa) in hemodialysis subjects with anemia associated with CKD. Additional objectives included to evaluate the pharmacodynamics (PD) of vadadustat 600, 750, and 900 mg daily, and IV ESA (darbepoetin alfa or epoetin alfa) in hemodialysis subjects with anemia associated with CKD and to assess the safety and tolerability of vadadustat 600, 750, and 900 mg daily and IV ESA (darbepoetin alfa or epoetin alfa) in hemodialysis subjects with anemia associated with CKD.
Study Design. This was a Phase 1b, randomized, open-label study to evaluate the PK, PD, safety, and tolerability of vadadustat 600, 750, or 900 mg daily, or ESA (darbepoetin alfa or epoetin alfa) in hemodialysis subjects with anemia associated with CKD. The study included a 28-day Screening and Randomization period, a 10-day Treatment Period, and a 30-day Safety Follow up Period after the last dose of study drug (vadadustat or ESA). For subjects randomized to vadadustat, study duration also included an ESA washout period of a minimum of 5 days for epoetin alfa or 9 days for darbepoetin alfa or 9-day ESA Washout period prior to dosing on Day 1.
A total of 46 subjects were enrolled in the study. Written informed consent were obtained before any screening procedures were performed. Subjects were screened within 28 days prior to randomization. Eligible subjects were randomized in a 2:2:2:1 ratio to 1 of 4 treatment groups (600, 750, or 900 mg vadadustat QD, or ESA. Randomized subjects began their 10-day Treatment Period within 36 days of initiating screening.
Eligible subjects were randomly assigned in a 2:2:2:1 ratio to 1 of 4 treatment groups: Group 1—vadadustat 600 mg once daily (QD); Group 2—vadadustat 750 mg QD; Group 3—vadadustat 900 QD; and Group 4—IV ESA. Randomization was stratified by the mean weekly ESA dose calculated over a period of 8 weeks prior to the randomization visit. For darbepoetin, the groups were divided into low dose darbepoetin alfa group (<0.5 μg/kg/week) and high dose darbepoetin alfa group (>0.5 to <1.5 μg/kg/week). For epoetin, the groups were divided into low dose epoetin alfa group (≤90 U/kg/week) and high dose epoetin alfa group (>90 to <300 U/kg/week).
Subjects began dosing on Day 1 and took vadadustat at approximately the same time each day for a total of 10 days. On Day 1 and Day 8, subjects took vadadustat after all predose procedures are completed and within 30 minutes prior to the start of dialysis so that the 1-hour post dose blood sample for PK and PD was collected during dialysis. Vadadustat could be taken with or without food. Subjects were instructed to make every effort to take the drug consistently, either with or without food. Subjects were instructed to swallow the tablets whole with water.
PK and EPO Sample. For each vadadustat treatment group, blood samples for vadadustat PK (and its metabolites) and EPO were collected at the following time points: Day 1: predose, and at 1, 2, 3, 4, 5, 8, and 11 hours post dose; Day 2: 24 hours (−2 hours) post Day 1 dose; Day 6: blood sample for EPO analysis only was collected predose on Day 6; Day 8: predose, and at 1, 2, 3, 4, 5, 8, 11 hours post dose, Day 10 or EOT: predose. For the ESA treatment group, blood samples for analysis of EPO were collected at the following time points: Day 1: predose, and at 0.25, 1, 2, 3, 4, 5, 8, and 11 hours post dose; Day 2: 24 hours (−2 hours) post Day 1 dose.
Primary Endpoints. […]

[2] = Phase 2 study, Main Study: pharmacokinetics (vadadustat and vadadustat-O-glucuronide concentration)
Experimental: PK/PD Endpoints. An exposure-response analysis of vadadustat and PD measures were conducted as deemed appropriate. The PK parameters included (but were not limited to) the following: area under concentration-time curve from dosing to last measurable concentration (AUClast), area under concentration-time curve from dosing to infinity (AUCinf), Cmax, apparent total body clearance (CL/F), apparent volume of distribution (Vd/F), and terminal half-life (t1/2). The PD parameters included (but were not limited to) the following: EPO, reticulocytes, iron, ferritin, TIBC, and hepcidin.
PK population: included all randomized subjects who received study drug (vadadustat or epoetin alfa) and had enough drug concentrations to estimate AUC and Cmax. Analysis of this population was based on the dose amount taken at the date of PK sampling for the vadadustat group.

[3] = system: total iron binding capacity (TIBC); test: Phase 2a clinical trials in stage 3, 4, or 5 CKD patients: iron-related parameters

Structure (SMILES): O=C(O)CNC(=O)c1ncc(-c2cccc(Cl)c2)cc1O [vadadustat, {[5-(3-chlorophenyl)-3-hydroxypyridine-2-carbonyl]amino}acetic acid]
- subjects receiving ESA administration as rescue (hemodialysis subjects; Baseline (inclusive) to Week 12 (inclusive), compared to epoetin alfa treated subjects): more
- subjects receiving any ESA administration (hemodialysis subjects; Baseline (inclusive) to Week 20 (inclusive), compared to epoetin alfa treated subjects): more
- change in Hb from PEP (Weeks 10 to 12) to SEP (Weeks 18 to 20) (hemodialysis subjects; Main Study, 17 subjects who switched from QD to TIW): -0.4 g/dL
- mean change from baseline in Hb (hemodialysis subjects; Main Study, baseline to PEP (Weeks 10 to 12), compared to epoetin alfa treatment group, throughout): numerically lower
- mean (SD) Hb overall at Weeks 10 to 12 (hemodialysis subjects; Main Study, compared to epoetin alfa): lower
- mean change in Hb between baseline and the SEP (hemodialysis subjects; Main Study, compared to epoetin alfa treatment group): lower
- proportion of subjects with RBC transfusion and RBC transfusion as rescue (hemodialysis subjects; across treatment groups, all study periods): similar
- change from baseline in Hb (hemodialysis subjects; high epoetin alfa stratum, vadadustat 300 mg, after Week 10 Hb began to return towards baseline): decrease from baseline in Hb up to Week 10
- number of subjects within target Hb range (hemodialysis subjects; high epoetin alfa stratum, vadadustat groups (particularly 300 mg) compared to epoetin alfa treatment group): numerically lower
- change from baseline in Hb (hemodialysis subjects; low epoetin alfa stratum, except for the vadadustat 300 mg group throughout treatment): no decrease from baseline in Hb was observed
- proportion of subjects with Hb values within the target range (10.0 to 11.0 g/dL, inclusive) at Weeks 10 to 12 (hemodialysis subjects; vadadustat 300 mg group of the high epoetin alfa stratum, lowest proportion): 8.3%
- vadadustat area under the curve (healthy adults): increased
- vadadustat exposure (AUC0-24 and Cmax) versus dose ([1]; Day 1 and Day 8): dose-dependent increase
- exposure for vadadustat, as measured by AUC0-24, versus dose ([1]; Day 1 dosing, 600 to 750 to 900 mg): increased with increasing dose
- Mean apparent total body clearance (CL/F) values across doses ([1]; Day 8, 600, 750, 900 mg): similar
- Tmax ([1]; human, plasma, oral, 600, 750, and 900 mg groups, Day 1 and Day 8, during the dialysis, read-out: median Tmax of vadadustat): 2 to 3 h
- accumulation versus dose ([1]; most pronounced in the 900 mg vadadustat treatment group): dose-dependent increase in accumulation
- concentrations versus dose ([2]; TIW group): No dose dependent increases in concentrations
- mean concentration versus time profiles, dose dependency ([2]; Week 1, Week 1+1 day, and Week 11): concentrations increased with dose levels

Structure (SMILES): O=C(O)CNC(=O)c1ncc(-c2cccc(Cl)c2)cc1O [Compound 1, {[5-(3-chlorophenyl)-3-hydroxypyridine-2-carbonyl]amino}acetic acid]
- TIBC versus dose [3]: dose-related increase
- serum iron levels with the increase in TIBC [3]: not associated with an increase in serum iron levels
- transferrin saturation (TSAT) [3]: decrease
- total iron binding capacity (TIBC) levels ([3]; 6 weeks post administration, compared to placebo treated patients): increase
